Assay results reported in US4504486A (priority 1982, dated 1985).

What was measured:
Phytophthora infestans = experiment: whole plant or invertebrate; assay type: in vivo; settings: in Solanum lycopersicum, 168 h, read-out: % Control TLB (Tomato Late Blight)
Rhizoctania solani = experiment: Mycelial Inhibition, Rhizoctania solani; assay type: cell-based; settings: Standard DIFOLATAN; 500 ppm, 25° C., 24 hours; 0 = more than 1.6 micrograms/cm^2 required for 99% control
Protocol: (§1) The compounds of the present invention were evaluated for in-vitro fungicidal effectiveness by means of a Mycelial Inhibition test. This test is designed to measure the fungitoxic activity of fungicidal chemicals in terms of their degree of inhibition of mycelium growth. Each compound to be tested was dissolved in acetone to 500 ppm concentration. Paper strips were infused with the particular mycelium growth by covering the paper with a potato dextrose broth culture of mycelial suspension. The papers were then placed on potato dextrose agar plates and sprayed by means of a microsprayer with the fungicidal solution. The treated paper strips were incubated at 25° C. and the data is taken after 24 hours. Fungicidal activities are measured by a zone of inhibited mycelial growth from the center of the paper strip. The effectiveness of the compounds tested for fungicidal activity is reported in Table II (a) for those compounds which were effective in inhibiting mycelial growth.
(§2) The activity is reported in terms of [formula]
(§3) When more than 1.6 micrograms/cm^2 for 99% control of the fungus for the test compound is required, the activity is reported as 0.

[1] = test system: Alternaria solani conidia; experiment: Tomato Early Blight (tomato seedlings); assay type: in vivo; settings: 250 ppm spray, inoculated 1 day later, relative to untreated check
Protocol: Compounds of the invention were tested for the control of the Tomato Early Blight organism, Alternaria solani conidia. Tomato (variety Bonny Best) seedlings of 6 to 7 weeks old were used. The tomato plants were sprayed with a 250 ppm solution of the test compound in an acetone-and-water solution containing a small amount of a nonionic emulsifier. The sprayed plants were inoculated 1 day later with the organism, placed in the environmental chamber and incubated at 66° to 68° F. and 100% relative humidity for 24 hours. Following the incubation, the plants were maintained in a greenhouse for about 12 days. Percent diseases control was based on the percent disease development on untreated check plants.

Botrytis cinerea = experiment: Mycelial Inhibition, Botrytis cinerea; assay type: cell-based; settings: Standard DIFOLATAN; 500 ppm, 25° C., 24 hours; 0 = more than 1.6 micrograms/cm^2 required for 99% control
Protocol: as §1, §2, §3

Erisiphe polygoni = experiment: Bean Powdery Mildew (seedling bean plants); assay type: in vivo; settings: 240 h; 250 ppm spray; bean seedlings, inoculated 1 day later; relative to untreated check; read-out: % Control BPM (Bean Powdery Mildew)
Protocol: The compounds of the invention were tested for the control of the Bean Powdery Mildew organism Erisiphe polygoni. Seedling bean plants were sprayed with a 250 ppm solution of the test compound in acetone, water and a nonionic emulsifier. The sprayed plants were then inoculated 1 day later with organism. The plants were maintained for 10 days at temperatures of 68° F. at night with daytime temperatures of 72° to 80° F.; relative humidity was maintained at 40% to 60%. The percent disease control provided by a given test compound was based on the percent disease reduction relative to the untreated check plants.

Plasmopara viticola = experiment: Grape Downy Mildew Control (detached grape leaves); assay type: in vivo; settings: in Vitis vinifera, 250 ppm spray, disease reduction relative to untreated check, read-out: % Control GDM (Grape Downy Mildew)
Protocol: Grape Downy Mildew Control
The compounds of the invention were tested for the control of the Grape Downy Mildew Control organism Plasmopara viticola. Detached leaves, between 70 and 85 mm in diameter, of 7-week old Vitis vinifera cultivar Emperor grape seedlings were used as hosts. The leaves were sprayed with a 250 ppm solution of the test compound in acetone. The sprayed leaves were dried, inoculated with a spore suspension of the organism, placed in a humid environmental chamber and incubated at 66° to 68° F. and about 100% relative humidity. After incubation for 2 days, the plants were then held in a greenhouse 7 to 9 days; then the amount of disease control was determined. The percent disease control provided by a given test compound was based on the percent disease reduction relative to untreated check plants.

Uronyces phaseoli tipica = experiment: Leaf Rust / Bean Rust (pinto beans); assay type: in vivo; settings: 336 h, 250 ppm spray, about 14 days, relative to untreated check, read-out: % Control BR (Bean Rust)
Protocol: The Leaf Rust test was made using pinto beans. The pathogen was Uronyces phaseoli tipica. The pinto bean plants were sprayed with a 250 ppm solution of the test compound in an acetone-water mixture containing a nonionic emulsifier. The treated plants were inoculated thereafter with the pathogen and then incubated in an environmental chamber for approximately 20 hours at 100% relative humidity and a temperature of 68° to 70° F. The plants were then removed from the chamber, allowed to dry, and then maintained in a greenhouse at a 60% to 80% relative humidity. The rate of infection on the leaves was made after about 14 days. The percent disease control provided by a given test compound was based on the percent disease reduction relative to untreated check plants.

Pythium ultimum = experiment: Mycelial Inhibition, Pythium ultimum; assay type: cell-based; settings: Standard DIFOLATAN; 500 ppm, 25° C., 24 hours; 0 = more than 1.6 micrograms/cm^2 required for 99% control
Protocol: as §1, §2, §3

Septoria apii = assay type: in vivo; settings: 250 ppm spray; celery plants; relative to untreated check
Piricularia oryzae = assay type: in vivo; settings: 625 ppm spray; rice seedlings, inoculated 1 day later; relative to untreated check

| Structure (SMILES) | pest or weed control at 250 ppm (Phytophthora infestans) | Mycelial inhibition, Rhizoc. (% Standard) (Rhizoctania solani) | % Control TEB (Tomato Early Blight) [1] | Mycelial inhibition, Botrytis (% Standard) (Botrytis cinerea) | pest or weed control at 250 ppm (Erisiphe polygoni) | pest or weed control at 250 ppm (Plasmopara viticola) | pest or weed control at 250 ppm (Uronyces phaseoli tipica) | Mycelial inhibition, Pythium (% Standard) (Pythium ultimum) | % Control CLB (Celery Late Blight) (Septoria apii) | % Control Rice Blast (Piricularia oryzae) |
| --- | --- | --- | --- | --- | --- | --- | --- | --- | --- | --- |
| Cc1cc(=O)on1C(=O)c1ccc([N+](=O)[O-])cc1 [Compound 1, 3-methyl-2-(4'-nitrobenzoyl)-3-isoxazolin-5-one] | 0% | 0 % Standard | 0% | 0 % Standard | 0% | 21% | 0% | 0 % Standard | – | – |
| Cc1cc(=O)on1C(=O)c1ccc(Cl)cc1Cl [Compound 2, 3-methyl-2-(2',4'-dichlorobenzoyl)-3-isoxazolin-5-one] | 97% | 0 % Standard | 92% | 34 % Standard | 21% | 14% | 0% | 0 % Standard | 99% | – |
| CCCc1cc(=O)on1C(=O)c1ccc(Cl)cc1Cl [Compound 3, 3-n-propyl-2-(2',4'-dichlorobenzoyl)-3-isoxazolin-5-one] | 35% | 0 % Standard | – | 0 % Standard | 0% | 0% | 0% | – | 0% | 44% |
| Cc1cc(=O)on1C(=O)c1ccccc1 [Compound 4] | 50% | 0 % Standard | – | 0 % Standard | 0% | 6% | 0% | – | 0% | 0% |
| CC(C)c1cc(=O)on1C(=O)c1ccc(Cl)cc1Cl [Compound 5] | 69% | 23 % Standard | – | 0 % Standard | 0% | 3% | 0% | – | 0% | 83% |
| Cc1cc(=O)on1C(=O)c1ccc(Cl)cc1 [Compound 6] | 50% | 33 % Standard | 0% | 6 % Standard | 0% | 16% | 0% | 12 % Standard | 0% | 0% |
| Cc1cc(=O)on1C(=O)c1ccc([N+](=O)[O-])cc1Cl [Compound 7] | 31% | 0 % Standard | 0% | 0 % Standard | 0% | 19% | 0% | 0 % Standard | 44% | 50% |
| Cc1cc(=O)on1C(=O)c1ccc(Cl)cc1[N+](=O)[O-] [Compound 8] | 56% | 0 % Standard | 56% | 15 % Standard | 0% | 6% | 0% | 0 % Standard | 11% | 0% |
